Entries after “also recorded” stand apart in the source; their conditions may differ. Like-named read-outs stand apart in the source and are kept apart here.
Columns and labels:
Central DA1 receptor = molecular target: T1, Central DA1 receptor (Rattus norvegicus, UniProt P18901); experiment: Binding study, rat striatum, [3H]-SCH23390
T1 construct: from tissue; host or cells: rat striatum
Experimental: (§1) The affinity of the enantiomers for adrenergic and dopaminergic receptors was tested by binding studies in cerebral and peripheral tissues. The results are reported in Table 1 compared with CHF 1024 racemate in terms of inhibition constant (Ki) expressed as nanomolar concentration (nM).

Central α2-receptor = experiment: Binding study, rat cerebral cortex, [3H]-rauwolscine; details: for Ki: rat cerebral cortex, [3H]-rauwolscine
Experimental: as §1

β1-receptor [1] = molecular target: β1-receptor (Cavia porcellus, UniProt H0W3H1); details: guinea pig, read-out: effectiveness (α)
[2] = test system: anaesthetized normotensive rats; experiment: Arterial pressure in anaesthetized normotensive rats, intravenous infusion; type: in vivo, rat; details: intravenous infusion for 30 min
Experimental: In anaesthetized normotensive rats with recording of the arterial pressure, the effects induced by intravenous infusion for 30 min of CHF 1024 enantiomers compared with the racemate were evaluated. Control animals only received the vehicle. The results are reported in FIG. 1 as mean values and standard error.

Central DA2-receptor = Central DA2-receptor (Rattus norvegicus, UniProt P61169); experiment: Binding study, rat striatum, [3H]-spiperone; details: for Ki: rat striatum, [3H]-spiperone
Experimental: as §1

[3] = molecular target: Pre-synaptic DA2 receptor (Oryctolagus cuniculus, UniProt G1T1Q0); experiment: Electrically stimulated rabbit rectococcigeus muscle, inhibition of contraction; details: read-out: effectiveness (α)
Experimental: (§2) The pharmacological activity of the enantiomers toward the same receptors was also tested in isolated tissue preparations. […] EC50 is the concentration inducing 50% of the maximal response and is expressed in mols/liter (M).

[4] = test system: conscious spontaneously hypertensive rats; experiment: Arterial pressure and heart rate in conscious spontaneously hypertensive rats (telemetry); type: in vivo, rat; details: for recovery to basal values after treatment: after interruption of s.c. treatment; for effect on heart rate (words, summary): subcutaneous administration for 7 days
[5] = molecular target: Pre-synaptic DA2 and α2 receptor; experiment: Perfused rabbit ear artery, inhibition of electrically-induced contraction; details: for pD2 (−log EC50): EC50 in M
Experimental: as §2

Central α1-receptor = experiment: Binding study, rat cerebral cortex, [3H]-prazosin
Experimental: as §1

β1-receptor [6] = molecular target: T2, β1-receptor (Rattus norvegicus, UniProt P18090); experiment: Binding study, rat lung, [3H]-(−)dihydroalprenolol
T2 construct: from tissue; host or cells: rat lung
Experimental: as §1

β2-receptor = molecular target: T3, β2-receptor (Rattus norvegicus, UniProt P10608); experiment: Binding study, rat lung, [3H]-(−)dihydroalprenolol
T3 construct: from tissue; host or cells: rat lung
Experimental: as §1

β2-receptors = molecular target: T4, β2-receptors (Cavia porcellus, UniProt Q8K4Z4); experiment: Guinea-pig tracheal strips contracted with carbachol, relaxing effect
T4 construct: was also tested in isolated tissue preparations; from tissue; host or cells: guinea-pig tracheal strips

[7] = Diffraction studies of crystal modifications; details: temperature dependent
α1 receptor = details: background statement; cited from earlier work
[8] = test system: plasma and tissular esterases; details: after administration through different routes (oral, transdermal); cited from earlier work
[9] = after oral administration of the racemate
[10] = rat striatum, [3H]-SCH23390, read-out: Ki
[11] = higher dose (6 nmol/kg/min) s.c., 7 days
[12] = rat lung, [3H]-(−)dihydroalprenolol, read-out: Ki
[13] = EC50 in M, guinea-pig tracheal strips, read-out: pD2 (−log EC50) (converted)

T3 sequence (P10608 whole entry): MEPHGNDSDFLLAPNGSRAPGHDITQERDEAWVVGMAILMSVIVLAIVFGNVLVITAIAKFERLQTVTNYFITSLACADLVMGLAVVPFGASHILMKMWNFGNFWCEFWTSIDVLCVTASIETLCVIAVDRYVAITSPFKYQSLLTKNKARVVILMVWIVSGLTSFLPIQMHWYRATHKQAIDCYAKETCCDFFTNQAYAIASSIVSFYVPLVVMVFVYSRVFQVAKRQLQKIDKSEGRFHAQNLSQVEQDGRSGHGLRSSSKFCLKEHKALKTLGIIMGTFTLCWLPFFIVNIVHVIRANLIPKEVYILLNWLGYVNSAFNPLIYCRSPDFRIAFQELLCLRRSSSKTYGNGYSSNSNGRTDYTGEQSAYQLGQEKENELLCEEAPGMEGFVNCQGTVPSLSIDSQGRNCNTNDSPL
Sequence of Central DA2-receptor (P61169 whole entry): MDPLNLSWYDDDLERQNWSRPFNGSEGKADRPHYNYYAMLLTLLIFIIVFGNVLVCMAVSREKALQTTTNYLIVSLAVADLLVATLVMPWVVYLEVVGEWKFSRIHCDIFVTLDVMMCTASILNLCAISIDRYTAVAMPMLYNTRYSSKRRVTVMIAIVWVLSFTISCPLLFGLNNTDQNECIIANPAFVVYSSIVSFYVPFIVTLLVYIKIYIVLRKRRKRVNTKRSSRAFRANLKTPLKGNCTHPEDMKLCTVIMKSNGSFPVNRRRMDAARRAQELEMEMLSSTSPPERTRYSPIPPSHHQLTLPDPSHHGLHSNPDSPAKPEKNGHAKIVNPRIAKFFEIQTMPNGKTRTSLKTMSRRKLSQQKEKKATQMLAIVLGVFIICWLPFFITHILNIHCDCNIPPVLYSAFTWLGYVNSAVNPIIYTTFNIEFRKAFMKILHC
Sequence of Pre-synaptic DA2 receptor (G1T1Q0 1-443): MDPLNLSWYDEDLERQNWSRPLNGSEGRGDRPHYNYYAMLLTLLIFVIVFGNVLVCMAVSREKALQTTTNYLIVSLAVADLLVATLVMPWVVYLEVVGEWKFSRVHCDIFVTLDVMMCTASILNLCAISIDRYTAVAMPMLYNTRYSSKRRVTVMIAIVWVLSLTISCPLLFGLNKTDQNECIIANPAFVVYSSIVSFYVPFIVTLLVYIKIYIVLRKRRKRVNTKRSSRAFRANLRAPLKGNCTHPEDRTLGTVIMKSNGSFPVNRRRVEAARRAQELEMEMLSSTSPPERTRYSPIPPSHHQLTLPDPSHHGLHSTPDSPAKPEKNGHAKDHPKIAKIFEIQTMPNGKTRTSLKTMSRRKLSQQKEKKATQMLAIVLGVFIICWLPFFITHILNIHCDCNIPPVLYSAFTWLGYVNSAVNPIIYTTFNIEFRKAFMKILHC
T4 sequence (Q8K4Z4 whole entry): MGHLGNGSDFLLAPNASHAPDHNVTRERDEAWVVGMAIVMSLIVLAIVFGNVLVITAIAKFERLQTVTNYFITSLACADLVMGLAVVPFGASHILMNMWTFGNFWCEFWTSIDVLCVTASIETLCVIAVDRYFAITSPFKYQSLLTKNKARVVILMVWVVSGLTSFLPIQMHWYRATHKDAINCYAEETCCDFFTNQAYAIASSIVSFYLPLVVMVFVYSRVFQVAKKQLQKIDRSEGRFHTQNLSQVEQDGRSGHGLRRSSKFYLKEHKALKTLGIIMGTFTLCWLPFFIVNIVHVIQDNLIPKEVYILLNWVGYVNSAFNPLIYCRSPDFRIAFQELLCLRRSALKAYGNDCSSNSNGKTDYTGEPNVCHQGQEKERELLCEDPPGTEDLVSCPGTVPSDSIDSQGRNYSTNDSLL
Sequence of β1-receptor (Cavia porcellus, UniProt H0W3H1) (H0W3H1 1-470): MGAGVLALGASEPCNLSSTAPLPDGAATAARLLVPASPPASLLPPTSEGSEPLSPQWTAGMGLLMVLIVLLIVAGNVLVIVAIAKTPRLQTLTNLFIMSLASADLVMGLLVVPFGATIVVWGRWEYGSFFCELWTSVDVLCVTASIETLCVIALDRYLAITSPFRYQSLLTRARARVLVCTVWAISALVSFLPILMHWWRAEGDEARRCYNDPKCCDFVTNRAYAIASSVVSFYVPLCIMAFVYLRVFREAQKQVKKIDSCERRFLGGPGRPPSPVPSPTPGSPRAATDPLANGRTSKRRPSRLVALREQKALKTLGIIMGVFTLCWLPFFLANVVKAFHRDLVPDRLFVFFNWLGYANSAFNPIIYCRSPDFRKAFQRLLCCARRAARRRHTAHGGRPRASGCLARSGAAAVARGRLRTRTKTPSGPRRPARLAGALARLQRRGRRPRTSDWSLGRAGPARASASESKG
T2 sequence (P18090 whole entry): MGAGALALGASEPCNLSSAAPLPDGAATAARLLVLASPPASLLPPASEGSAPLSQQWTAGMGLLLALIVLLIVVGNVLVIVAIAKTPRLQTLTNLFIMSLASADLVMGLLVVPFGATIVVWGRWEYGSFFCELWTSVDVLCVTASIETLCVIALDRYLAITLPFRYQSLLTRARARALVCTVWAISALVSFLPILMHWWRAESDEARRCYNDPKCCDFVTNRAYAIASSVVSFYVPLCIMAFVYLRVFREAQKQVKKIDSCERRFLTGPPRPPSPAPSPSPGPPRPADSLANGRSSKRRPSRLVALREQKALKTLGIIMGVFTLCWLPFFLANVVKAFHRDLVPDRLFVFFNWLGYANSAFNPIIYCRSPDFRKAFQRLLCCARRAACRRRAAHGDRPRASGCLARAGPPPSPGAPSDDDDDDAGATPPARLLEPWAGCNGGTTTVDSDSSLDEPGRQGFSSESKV
T1 sequence (P18901 whole entry): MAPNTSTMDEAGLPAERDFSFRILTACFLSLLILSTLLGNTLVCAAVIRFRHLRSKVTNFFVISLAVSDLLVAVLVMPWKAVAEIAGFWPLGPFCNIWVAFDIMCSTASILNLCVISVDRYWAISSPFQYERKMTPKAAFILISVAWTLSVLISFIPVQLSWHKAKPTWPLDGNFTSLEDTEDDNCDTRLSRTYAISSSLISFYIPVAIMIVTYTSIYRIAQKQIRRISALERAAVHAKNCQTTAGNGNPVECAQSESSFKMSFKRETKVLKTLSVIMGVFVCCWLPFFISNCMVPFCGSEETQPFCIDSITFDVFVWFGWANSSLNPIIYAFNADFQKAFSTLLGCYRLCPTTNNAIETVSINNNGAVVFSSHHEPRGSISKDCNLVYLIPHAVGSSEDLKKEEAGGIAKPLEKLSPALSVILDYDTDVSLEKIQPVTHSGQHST

SMILES | Ki (Central DA1 receptor; [10]) [nM] | Ki (Central α2-receptor) [nM] | Emax (β1-receptor [1]) [%] | effect on arterial pressure (hypotensive response) [2] | Ki (Central DA2-receptor) [nM] | Emax [3] [%] | effect on heart rate ([4]; 3 nmol/kg/min s.c., 7 days) | recovery to basal values after treatment [4] | effect on heart rate (words, summary) [4] | pD2 (−log EC50) ([5]; rabbit ear artery) | effectiveness (α) ([5]; rabbit ear artery) | Ki (Central α1-receptor) [nM] | Ki (β1-receptor [6]; [12]) [nM] | Ki (β2-receptor; [12]) [nM] | EC50 (β2-receptors; [13]) [nM] | effectiveness (α) (β2-receptors; guinea-pig tracheal strips) | structural rearrangement of the crystal form (polymorphic stability) [7] | further results
CN[C@@H]1CCc2c(ccc(O)c2O)C1 [CHF 1869] | 7400 | 1600 | 83 | rapid onset and disappearance of the hypotensive effects; also recorded: more rapid but less lasting response | 2400 | 87 | no reduction of heart rate | faster than with CHF 1870 | no reduction of heart rate | <5.0 | 0.92 | 21000 | 90000 | 1400 | 251 | 0.97 | – | hypotensive effect ([4]; 3 nmol/kg/min s.c., 7 days): slight, although noticeable, hypotensive effect; effect on heart rate [4, 11]: no reduction of heart rate is observed, which even increases during the first 2-3 days of treatment; hypotensive response [4, 11]: comparable to that caused by its optical antipode; activity on α2 and DA2 receptors ([5]; isolated tissue preparations): poor activity on α2 and DA2 receptors
CN[C@H]1CCc2c(ccc(O)c2O)C1 [CHF 1870, (−)-(S)-5,6-dihydroxy-2-methylaminotetralin] | 6800 | 130 | 91 | dose-dependent reduction of the arterial pressure which was maintained even after infusion was discontinued; also recorded: hypotensive response slightly lower but remarkably longer-lasting than that of the racemate | 120 | 91 | greater reduction of heart rate compared with the racemate | took place more slowly | more marked reduction of heart rate than an equivalent dose of the racemate | 9.6 | 0.92 | 15000 | 40000 | 1000 | 398 | 0.97 | – | affinity for α2-adrenergic receptors relative to the dextro enantiomer (CHF 1869) (Central α2-receptor; from Table 1): ~10 times; affinity for DA2-dopaminergic receptors relative to the dextro enantiomer (CHF 1869) (Central DA2-receptor; from Table 1): about 20 times; reduction of arterial pressure ([4]; 3 nmol/kg/min s.c. osmotic minipump, 7 days): 20-30 mmHg; reduction of heart rate [4, 11]: about 70 beats/minute; potency relative to its optical antipode ([5]; rabbit ear artery): at least 10000 times
CN[C@H]1CCc2c(ccc(OC(=O)C(C)C)c2OC(=O)C(C)C)C1.Cl [CHF 1810, (−)-(S)-5,6-diisobutyroyloxy-2-methylaminotetralin hydrochloride] | – | – | – | – | – | – | – | – | – | – | – | – | – | – | – | – | does not show any structural rearrangement below 100 °C | –
CNC1CCc2c(ccc(O)c2O)C1 (racemic) [CHF 1024, (±)-5,6-dihydroxy-2-methylaminotetralin, reference compound] | – | 260 | 81 | – | – | 96 | – | – | – | 9.0 | 0.94 | 16000 | – | – | – | 0.96 | – | Ki (Central DA1 receptor): 13000 nM; Ki (Central DA2-receptor; read-out: Ki): 290 nM; agonist activity on α1 receptor (α1 receptor): negligible; Ki (β1-receptor [6]): 45000 nM; Ki (β2-receptor): 1500 nM; EC50 (β2-receptors): 251 nM
CNC1CCc2c(ccc(OC(=O)C(C)C)c2OC(=O)C(C)C)C1 (racemic) [CHF 1035, (±)-(R,S)-5,6-Diisobutyroyloxy-2-methylaminotetralin] | – | – | – | – | – | – | – | – | – | – | – | – | – | – | – | – | form I shows two remarkable structural rearrangements | conversion into the desesterified form CHF 1024 [8]: quickly and completely converted; AUC of the dextro form relative to that of the laevo form [9]: about one half
